Assays:
[1] = Compound toxicity in the attachment assay, sister plate, XTT or MTS (Example 2); type: cell-based; settings: human, HeLa CD4 LTR β-gal cells, read-out: Attachment Assay TC50
Protocol: (§1) This assay detects compounds that block virus attachment using HeLa CD4 LTR β-gal cells. HeLa CD4 LTR β-gal cells were cultured with selection antibiotics. Twenty-four h prior to initiation of the assay, the cells were trypsinized, counted and plated in a 0.2 cm well in media without selection antibiotics. At 24 h media is removed and compound in media placed on the cells and incubated for 15 min at 37° C. A known titer of the IIIB strain of HIV-1 was then added to the wells and the incubation continued for 1 to 2 h. At the end of the incubation the wells were washed 2 times with media and the culture continued for 40 to 48 h. At termination of the assay, media is removed and β-galactosidase enzyme expression determined by chemiluminescence per manufacturer's instructions (Tropix Gal-screen, Bedford Mass.). Compound toxicity is monitored on a sister plate by XTT or MTS dye reduction. All determinations are performed in triplicate with serial_Log10 dilution of the test materials. The virus adsorption interval of 1 to 2 h was sufficiently short that AZT, which requires phosphorylation to achieve its active tri-phosphate form (AZT-TTP), is not active in this assay.

HeLa CD4 LTR β-gal cells = assay: as above; type: cell-based
Protocol: as §1

SMILES	CC50 [1]	Attachment Assay TC50 (HeLa CD4 LTR β-gal cells)
CC1=CCC2C(C1)c1c(O)cc(C(C)(C)CCCC(C)C)cc1OC2(C)C (stereo not drawn) [IMG509, 3-Norpentyl-3-(1,1,5-trimethylhexyl)-Δ8-tetrahydrocannabinol]	> 10 µM	
Cc1c(O)cc(C(C)(C)CCCC(C)C)cc1O [IMG510, 2-Methyl-5-(1,1,5-trimethylhexyl)resorcinol]	> 10 µM	
Cc1ccc2c(c1)-c1c(O)cc(C(C)(C)CCCC(C)C)cc1OC2(C)C [IMG511, 3-Norpentyl-3-(1,1,5-trimethylhexyl)cannabinol]		>67 µM

From US20030232101A1, “Topical formulations of resorcinols and cannibinoids and methods of use” (Immugen Pharmaceuticals, Inc., priority 2002, published 2003)
